Measurements published in patent US12421242B2, “Substituted tetrahydropyrrolo-pyridinone compounds and their use in treating medical conditions” (Karuna Therapeutics, Inc., priority 2022, dated 2025).
pEC50: −log10 of the molar value.

Columns and labels:
[1] = biological target: T1, hM4 receptors (Homo sapiens, UniProt P08173); assay: Human M4 PAM pERK assay; format: cell-based; conditions: PAM mode
T1 construct: expressed in transfected cells; host or cells: CHO cells
T1 sequence (P08173 1-479): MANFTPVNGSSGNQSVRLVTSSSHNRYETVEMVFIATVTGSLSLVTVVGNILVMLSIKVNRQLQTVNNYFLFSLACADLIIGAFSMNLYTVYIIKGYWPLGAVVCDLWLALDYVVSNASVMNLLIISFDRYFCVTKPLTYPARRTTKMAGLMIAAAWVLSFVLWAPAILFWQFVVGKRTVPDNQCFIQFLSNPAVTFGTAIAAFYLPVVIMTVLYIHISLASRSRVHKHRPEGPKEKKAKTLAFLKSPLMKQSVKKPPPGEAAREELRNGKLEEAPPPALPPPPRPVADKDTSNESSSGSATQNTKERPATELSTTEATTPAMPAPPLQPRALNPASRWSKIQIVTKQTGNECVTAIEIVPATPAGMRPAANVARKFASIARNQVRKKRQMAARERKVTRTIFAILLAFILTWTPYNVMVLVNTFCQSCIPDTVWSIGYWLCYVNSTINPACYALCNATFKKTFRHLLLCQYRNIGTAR
Protocol: (§1) Chinese hamster ovary (CHO) cells expressing either hM4 or rM4 receptors were frozen in assay ready vials (5×10^6 cells/vial) after bulking-up in culture. The day before an assay, vial(s) were thawed and cells seeded in 384 well white proxiplates at 1000/well for hM4 cells and at 2000/well for rM4 cells, in 10 μL of growth media (Hams/F12 with glutamax and 10% FCS) and incubated overnight at 37° C./5% CO2.
(§2) On the following morning, the growth media was removed by ‘flicking out’ over a bin, patting the inverted plate onto tissue, and then replacing with 10 μL of wash media (Hams/F12 with glutamax and 8 mM HEPES, NB: serum free). Then, the wash media was removed in the same way and replaced with 8 μL/well of the serum free media. Plates were then re-incubated for a further 4 hours at 37° C./5% CO2.
(§3) Compounds for testing were solubilized to 10 mM in DMSO and compound addition plates, consisting of ten-point concentration response curves (CRC) in duplicate points (10 μM top concentration, […]), were prepared by acoustic dispensing and the compound management group.
(§4) After the 4-hour incubation in serum free media, a 4 μL aliquot of the 3× compound solution containing an EC20 of acetylcholine (10 nM final concentration) was added to the cell plate using a 384 well plate to plate transfer. Then, the plate lid was replaced, and the cells incubated for 5 mins at 37° C./5% CO2. Following this final incubation, all cellular processes were stopped by the addition of 4 μL/well of lysis and blocking buffer and plates were incubated for 30 minutes at RT on an orbital shaker (gentle setting). Then, a final addition of 4 μL/well of antibody detection mix, containing both the Europium-Cryptate (donor) and d2 (acceptor) tagged detection components, was added followed by a further 2-hour incubation at RT, and then the plate was read using a TR-FRET (time resolved fluorescence resonance energy transfer) based protocol.

[2] = biological target: T2, rM4 receptors (Rattus norvegicus, UniProt P08485); assay: Rat M4 PAM pERK assay; format: cell-based; conditions: PAM mode
T2 construct: expressed in transfected cells; host or cells: CHO cells
T2 sequence (P08485 1-478): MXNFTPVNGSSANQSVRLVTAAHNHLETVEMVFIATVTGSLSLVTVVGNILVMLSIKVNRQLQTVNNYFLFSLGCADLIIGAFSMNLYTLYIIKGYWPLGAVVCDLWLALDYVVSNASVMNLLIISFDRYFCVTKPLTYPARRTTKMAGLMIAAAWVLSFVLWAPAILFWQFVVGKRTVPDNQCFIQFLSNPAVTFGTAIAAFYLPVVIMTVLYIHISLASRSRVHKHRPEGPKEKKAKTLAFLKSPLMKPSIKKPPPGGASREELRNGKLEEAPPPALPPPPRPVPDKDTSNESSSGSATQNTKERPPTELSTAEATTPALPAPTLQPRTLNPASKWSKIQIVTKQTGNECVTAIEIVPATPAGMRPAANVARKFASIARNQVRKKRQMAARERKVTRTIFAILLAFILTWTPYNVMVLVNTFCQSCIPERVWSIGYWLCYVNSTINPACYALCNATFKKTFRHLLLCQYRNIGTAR
Protocol: as §1, §2, §3, §4

[3] = biological target: T3, human M4 receptor (Homo sapiens, UniProt P08173); assay: M4 GTPγS PAM assay; format: biochemical; conditions: CHO-K1 membranes expressing human M4, with EC20 acetylcholine (40 nM)
T3 construct: expressed in transfected cells
T3 sequence (P08173 1-479): T1 sequence (P08173 1-479)
Protocol: The M4 GTPγS PAM method was used. Membranes were prepared for GTPgS binding assays from CHO-K1 cells stably expressing human M4 receptor. Briefly, cells were grown in 5-layer cell culture flasks. Cells were washed with 50 mL of PBS and then dissociated with 0.05% trypsin. Dissociated cells were then collected by centrifugation at 650×g for 8 minutes at 4° C. Pellets were washed again in PBS by centrifugation and resuspended in 30 mL of 20 mM HEPES, 10 mM EDTA, pH 7.4. After sitting on ice for 30 min, membranes were collected by centrifugation at 50000×g for 15′ at 4° C., resuspended in 30 mL of 20 mM HEPES, 0.1 mM EDTA, pH 7.4 and collected again by centrifugation. Pellets were then washed twice by centrifugation in 30 mL of 20 mM HEPES, pH 7.4, and stored at −80° C. until the day of the assay. On the day of the assay, pellets were thawed on ice and resuspended in 1 mL of 20 mM HEPES, pH 7.4, 10 mM MgCl2, 100 mM NaCl using dounce homogenization. Membrane protein concentration is determined by BCA protein assay (Promega, Madison, WI) according to Promega guidelines.
On the day of the assay, serial dilutions of test PAM compounds were brought up in assay buffer (20 mM HEPES, 10 mM MgCl2, 100 mM NaCl) at 4× final assay concentration. […] of membrane homogenates (containing […] of membrane protein) were prepared in assay buffer supplemented with GDP at 4× final assay concentration (final assay concentration of GDP is 5 uM for M2 and 0.1 uM for M4) and dispensed into 96 well polypropylene, U-bottom Greiner plates. […] of vehicle or test PAM compound at 4× of final assay concentration diluted in the assay buffer were added to membrane and plates are incubated for 10-15 minutes at room temperature with gentle shaking. Then, […] of EC20 acetylcholine in assay buffer at 4× final assay concentration was added to assay plates (EC20 final assay concentrations was 40 nM for human M4).
Plates were then incubated, with shaking, for an additional 10-15 minutes. 25 mL of 0.4 nM ^35S-GTP (Perkin Elmer, Waltham, MA) in assay buffer was added to assay mixtures. The binding reaction is left on the shaker for 1 hour at room temperature. Membranes in assay reactions were then transferred to GF/C filter plates (Unifilter, Perkin Elmer) and washed three times using a FilterMate Harvester (Perkin Elmer) with cold assay buffer containing no GDP. Filter plates were then dried at 40° C. overnight followed by the addition of […] of Beta Plate Scintillation liquid. Plates are top and bottom sealed before being read on TopCount scintillation counter (Perkin Elmer, Waltham, MA).

| Structure (SMILES) | pEC50 [1] | pEC50 [2] | pEC50 [3] |
| --- | --- | --- | --- |
| COCCn1cc(C(=O)N2Cc3c(C)c(Cl)c(=O)n(C)c3C2)cn1 [Compound I-63] | < 5.70 | < 5.70 | < 5.70 |
| Cc1cc(=O)n(C)c2c1CN(C(=O)c1cnn(C)c1)C2C (centres unmarked) [Compound I-105, 1,4,7-Trimethyl-6-(1-methyl-1H-pyrazole-4-carbonyl)-1,5,6,7-tetrahydro-2H-pyrrolo[3,4-b]pyridin-2-one] | < 5.70 |  | < 5.70 |
| COc1c2c(n(C)c(=O)c1Cl)CN(C(=O)c1cnn(C(F)(F)F)c1)C2C (single isomer, unassigned) [Compound I-75] | < 5.70 | < 5.70 | < 5.70 |
| Cc1c2c(n(CC(F)(F)F)c(=O)c1Cl)CN(C(=O)c1ccc3nc(C4CC4)sc3c1)C2 [Compound I-72] | 6.30 to 7.00 | 6.30 to 7.00 | 6.30 to 7.00 |
| COC(C)(C)Cn1cc(C(=O)N2Cc3c(C)c(Cl)c(=O)n(C)c3C2)cn1 [Compound I-62] | < 5.70 | < 5.70 | 5.70 to 6.30 |
| Cc1c2c(n(C)c(=O)c1Cl)CN(C(=O)c1ccnc(C(F)(F)F)c1)C2 [Compound I-42] | 5.70 to 6.30 | < 5.70 | < 5.70 |
| Cc1cc(=O)n(C)c2c1C(C)N(C(=O)c1cnc(C(F)(F)F)s1)C2 (single isomer, unassigned) [Compound I-95] | 6.30 to 7.00 | < 5.70 | 5.70 to 6.30 |
| Cc1c2c(n(C)c(=O)c1Cl)CN(C(=O)c1cnn(C(F)F)c1)C2 [Compound I-17] | > 7.00 | 5.70 to 6.30 | < 5.70 |
| Cc1c2c(n(C)c(=O)c1Cl)CN(C(=O)c1ccc(C(F)(F)F)cn1)C2 [Compound I-45] | 6.30 to 7.00 | < 5.70 | < 5.70 |
| Cc1c2c(n(C)c(=O)c1Cl)CN(C(=O)c1cnc(C(F)(F)F)s1)C2 [Compound I-29] | > 7.00 | 5.70 to 6.30 | 5.70 to 6.30 |
| Cc1c2c(n(C)c(=O)c1Cl)CN(C(=O)c1cnc(CC3CC3)s1)C2 [Compound I-28] | > 7.00 | 5.70 to 6.30 | 6.30 to 7.00 |
| Cc1c2c(n(C)c(=O)c1Cl)CN(C(=O)c1cn(C(C)C)cn1)C2 [Compound I-14] | 5.70 to 6.30 | < 5.70 | < 5.70 |
| Cc1c2c(n(C)c(=O)c1Cl)CN(C(=O)c1cncc(C(F)(F)F)c1)C2 [Compound I-48] | < 5.70 |  | < 5.70 |
| Cc1c2c(n(C)c(=O)c1Cl)CN(C(=O)c1ccc(C(F)(F)F)nc1)C2 [Compound I-44] | 6.30 to 7.00 | 5.70 to 6.30 | > 7.00 |
| Cc1cc(=O)n(C)c2c1C(C)N(C(=O)c1cnc(C3CC3)s1)C2 (single isomer, unassigned) [Compound I-97] | 6.30 to 7.00 | < 5.70 | < 5.70 |
| Cc1cc(=O)n(C)c2c1CN(C(=O)c1cnn(C)c1)C2C (single isomer, unassigned) [Compound I-106] | < 5.70 |  | < 5.70 |
| CSc1c2c(n(C)c(=O)c1C)CN(C(=O)c1cnn(C(F)(F)F)c1)C2 [Compound I-90, 1,3-Dimethyl-4-(methylthio)-6-(1-(trifluoromethyl)-1H-pyrazole-4-carbonyl)-1,5,6,7-tetrahydro-2H-pyrrolo[3,4-b]pyridin-2-one] | 6.30 to 7.00 | < 5.70 | 5.70 to 6.30 |
| Cc1c2c(n(C)c(=O)c1Cl)CN(C(=O)c1cn(C)c(C)n1)C2 [Compound I-11] | < 5.70 |  | < 5.70 |
| Cc1cc(=O)n(C)c2c1[C@@H](C)N(C(=O)c1ccc3nc(C4CC4)sc3c1)C2 [Compound I-103] | 6.30 to 7.00 | 5.70 to 6.30 | < 5.70 |
| Cc1c2c(n(C)c(=O)c1Cl)CN(C(=O)c1cc(C(F)(F)F)on1)C2 [Compound I-8] | > 7.00 | < 5.70 | < 5.70 |
| Cc1c2c(n(C)c(=O)c1Cl)CN(C(=O)c1cnc(C(F)(F)C3CC3)s1)C2 [Compound I-67, 3-Chloro-6-(2-(cyclopropyldifluoromethyl)thiazole-5-carbonyl)-1,4-dimethyl-1,5,6,7-tetrahydro-2H-pyrrolo[3,4-b]pyridin-2-one] | > 7.00 | 5.70 to 6.30 | 6.30 to 7.00 |
| Cc1c2c(n(C)c(=O)c1Cl)CN(C(=O)c1cccc(C(F)(F)F)c1)C2 [Compound I-40] | 5.70 to 6.30 | < 5.70 | < 5.70 |
| Cc1c2c(n(C)c(=O)c1Cl)CN(C(=O)c1cnc(C3CC3)s1)C2 [Compound I-21] | > 7.00 | 5.70 to 6.30 | 6.30 to 7.00 |
| Cc1c2c(n(C)c(=O)c1Cl)CN(C(=O)c1ccn(C)n1)C2 [Compound I-3] | 5.70 to 6.30 | < 5.70 | < 5.70 |
| Cc1c2c(n(C)c(=O)c1Cl)CN(C(=O)c1cc3n(n1)CCCC3)C2 [Compound I-32] | 6.30 to 7.00 | < 5.70 | 5.70 to 6.30 |
| COc1c2c(n(C)c(=O)c1C)CN(C(=O)c1cnn(C(F)(F)F)c1)C2C (single isomer, unassigned) [Compound I-83] | > 7.00 | 5.70 to 6.30 | 6.30 to 7.00 |
| COc1cc(=O)n(C)c2c1C(C)N(C(=O)c1cnn(C(F)(F)F)c1)C2 (centres unmarked) [Compound I-79, 4-Methoxy-1,5-dimethyl-6-(1-(trifluoromethyl)-1H-pyrazole-4-carbonyl)-1,5,6,7-tetrahydro-2H-pyrrolo[3,4-b]pyridin-2-one] | 5.70 to 6.30 | < 5.70 | 5.70 to 6.30 |
